Experiments:
Format in all cases: biochemical
[1] = target: T1, SIK1 (Homo sapiens, UniProt P57059); test: ADP-Glo kinase assay, SIK1
T1 construct: purchased Carna Biosciences 02-131
Outline: (§1)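 Luminescent ADP-formation read-out: enzyme–substrate mix + ATP, 120 min RT; ATP depletion 40 min RT; ADP→ATP conversion with luciferase/luciferin 30 min RT. Controls: 1% DMSO (negative), 10 μM staurosporine final (positive).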

[2] = target: T2, SIK2 (Homo sapiens, UniProt Q9H0K1); test: ADP-Glo kinase assay, SIK2
T2 construct: purchased ThermoFisher Scientific PV4792
T2 sequence (Q9H0K1 whole entry): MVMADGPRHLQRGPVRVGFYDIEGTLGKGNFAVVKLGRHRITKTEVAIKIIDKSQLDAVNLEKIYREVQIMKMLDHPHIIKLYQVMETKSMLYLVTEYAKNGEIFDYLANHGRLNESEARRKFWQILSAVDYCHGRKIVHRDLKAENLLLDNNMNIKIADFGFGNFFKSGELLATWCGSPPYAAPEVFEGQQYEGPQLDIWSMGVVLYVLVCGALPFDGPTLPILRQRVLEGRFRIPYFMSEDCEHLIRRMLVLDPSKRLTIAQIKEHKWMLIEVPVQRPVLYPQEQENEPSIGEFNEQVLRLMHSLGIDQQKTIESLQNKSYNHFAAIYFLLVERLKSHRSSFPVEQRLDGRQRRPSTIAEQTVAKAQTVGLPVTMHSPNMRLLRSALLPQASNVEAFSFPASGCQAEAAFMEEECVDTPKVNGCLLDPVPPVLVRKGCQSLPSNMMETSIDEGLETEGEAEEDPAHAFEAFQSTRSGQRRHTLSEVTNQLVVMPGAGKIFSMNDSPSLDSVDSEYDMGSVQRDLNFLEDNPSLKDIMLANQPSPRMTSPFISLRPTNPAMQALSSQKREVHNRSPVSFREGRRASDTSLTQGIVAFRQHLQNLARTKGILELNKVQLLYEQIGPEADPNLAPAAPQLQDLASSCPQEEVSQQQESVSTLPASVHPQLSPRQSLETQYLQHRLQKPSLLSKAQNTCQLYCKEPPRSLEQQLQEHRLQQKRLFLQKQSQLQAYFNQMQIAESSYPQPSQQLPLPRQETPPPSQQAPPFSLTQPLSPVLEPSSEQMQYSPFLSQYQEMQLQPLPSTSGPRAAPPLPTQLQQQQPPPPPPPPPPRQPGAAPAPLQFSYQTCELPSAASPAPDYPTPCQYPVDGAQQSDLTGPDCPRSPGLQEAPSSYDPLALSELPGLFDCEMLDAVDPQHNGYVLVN
Outline: as §1

[3] = target: T3, SIK3 (Homo sapiens, UniProt Q9Y2K2); test: ADP-Glo kinase assay, SIK3
T3 construct: purchased SignalChem S12-11G-100
T3 sequence (Q9Y2K2 59-365 limits assumed): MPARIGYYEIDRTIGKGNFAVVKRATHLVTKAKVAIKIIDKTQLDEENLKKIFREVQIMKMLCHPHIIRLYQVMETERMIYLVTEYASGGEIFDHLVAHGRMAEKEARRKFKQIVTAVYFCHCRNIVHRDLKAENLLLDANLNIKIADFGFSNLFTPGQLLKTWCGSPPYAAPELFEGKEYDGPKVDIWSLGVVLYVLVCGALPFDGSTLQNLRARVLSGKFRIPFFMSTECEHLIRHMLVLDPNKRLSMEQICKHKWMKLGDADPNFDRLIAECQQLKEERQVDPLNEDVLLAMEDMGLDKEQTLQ
Outline: as §1

T1 sequence (P57059 whole entry): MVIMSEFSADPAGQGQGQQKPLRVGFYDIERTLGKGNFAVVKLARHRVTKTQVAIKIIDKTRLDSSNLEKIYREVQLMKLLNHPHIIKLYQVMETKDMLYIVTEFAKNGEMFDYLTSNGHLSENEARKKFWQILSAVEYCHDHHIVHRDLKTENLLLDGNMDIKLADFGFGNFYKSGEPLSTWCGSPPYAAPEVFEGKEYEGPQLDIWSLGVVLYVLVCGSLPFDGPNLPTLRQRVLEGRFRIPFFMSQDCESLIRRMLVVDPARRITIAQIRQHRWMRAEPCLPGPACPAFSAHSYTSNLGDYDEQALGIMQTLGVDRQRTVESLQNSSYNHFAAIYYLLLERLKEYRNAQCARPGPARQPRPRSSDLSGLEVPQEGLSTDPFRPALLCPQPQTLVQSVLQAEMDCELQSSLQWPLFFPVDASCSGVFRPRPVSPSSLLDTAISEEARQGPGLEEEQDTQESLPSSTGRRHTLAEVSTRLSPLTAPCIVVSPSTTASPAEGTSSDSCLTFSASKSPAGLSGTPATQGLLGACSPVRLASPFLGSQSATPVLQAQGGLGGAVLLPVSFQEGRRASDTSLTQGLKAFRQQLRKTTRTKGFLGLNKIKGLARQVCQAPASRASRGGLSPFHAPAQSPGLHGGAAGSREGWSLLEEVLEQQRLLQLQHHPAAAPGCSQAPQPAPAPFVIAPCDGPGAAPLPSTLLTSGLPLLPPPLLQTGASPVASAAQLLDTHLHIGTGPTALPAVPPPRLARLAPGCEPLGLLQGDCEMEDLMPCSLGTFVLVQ

Row | SMILES | IC50 [1] | IC50 [2] | IC50 [3]
1 | CCN(C)C(=O)c1c(OC)cc(-c2cnc3cc(C(C)(C)C#N)ccn23)cc1OC(F)F [Cpd 40, 4-[7-(1-cyano-1-methyl-ethyl)imidazo[1,2-a]pyridin-3-yl]-2-(difluoromethoxy)-N-ethyl-6-methoxy-N-methyl-benzamide] | > 500 nM | > 500 nM | > 500 nM
2 | COc1cc(-c2cnc3cc(C(C)(C)C#N)ccn23)cc(OC(F)F)c1C(=O)N1CC2(COC2)C1 [Cpd 51, 2-[3-[3-(difluoromethoxy)-5-methoxy-4-(2-oxa-6-azaspiro[3.3]heptane-6-carbonyl)phenyl]imidazo[1,2-a]pyridin-7-yl]-2-methyl-propanenitrile] | > 500 nM | > 500 nM | 10 to 100 nM
3 | COc1cc(-c2cnc3cc(C(C)(C)CN4CCCC4)ccn23)cc(OC(F)F)c1C(=O)NC1CC1 [Cpd 161, N-cyclopropyl-2-(difluoromethoxy)-4-[7-(1,1-dimethyl-2-pyrrolidin-1-yl-ethyl)imidazo[1,2-a]pyridin-3-yl]-6-methoxy-benzamide] | > 500 nM | > 500 nM | 10 to 100 nM
4 | COc1cc(-c2cnc3cc(C4CN(C)C4)ccn23)cc(OC(F)F)c1C(=O)NC1CC1 [Cpd 91, N-cyclopropyl-2-(difluoromethoxy)-6-methoxy-4-[7-(1-methylazetidin-3-yl)imidazo[1,2-a]pyridin-3-yl]benzamide] | > 500 nM | 100 to 500 nM | 10 to 100 nM
5 | CCC1(NC(=O)c2c(OC)cc(-c3cnc4cc(C(C)(C)C#N)ccn34)cc2OC(F)F)CC1 [Cpd 83, 4-[7-(1-cyano-1-methyl-ethyl)imidazo[1,2-a]pyridin-3-yl]-2-(difluoromethoxy)-N-(1-ethylcyclopropyl)-6-methoxy-benzamide] | > 500 nM | > 500 nM | > 500 nM
6 | COc1cc(-c2cnc3cc(C4CCN(C(=O)OC(C)(C)C)CC4)ccn23)cc(OC(F)F)c1C(=O)NC1CC1 [Cpd 60, tert-butyl 4-[3-[4-(cyclopropylcarbamoyl)-3-(difluoromethoxy)-5-methoxy-phenyl]imidazo[1,2-a]pyridin-7-yl]piperidine-1-carboxylate] | 100 to 500 nM | 10 to 100 nM | 0.01 to 10 nM
7 | COc1cc(-c2cnc3cc(C(C)(C)C#N)ccn23)cc(OC(F)F)c1C(=O)NC(CO)C1CC1 (stereo not drawn) [Cpd 87, 4-[7-(1-cyano-1-methyl-ethyl)imidazo[1,2-a]pyridin-3-yl]-N-(1-cyclopropyl-2-hydroxy-ethyl)-2-(difluoromethoxy)-6-methoxy-benzamide] | > 500 nM | > 500 nM | > 500 nM
8 | COc1cc(-c2cnc3cc(C(C)(C)C#N)ccn23)cc(OC(F)F)c1C(=O)NCCCO [Cpd 44, 4-[7-(1-cyano-1-methyl-ethyl)imidazo[1,2-a]pyridin-3-yl]-2-(difluoromethoxy)-N-(3-hydroxypropyl)-6-methoxy-benzamide] | > 500 nM | > 500 nM | 10 to 100 nM
9 | COc1cc(-c2cnc3cc(C(C)(C)C#N)ccn23)cc(OC(F)F)c1C(=O)N1CC(O)(C(F)(F)F)C1 [Cpd 75, 2-[3-[3-(difluoromethoxy)-4-[3-hydroxy-3-(trifluoromethyl)azetidine-1-carbonyl]-5-methoxy-phenyl]imidazo[1,2-a]pyridin-7-yl]-2-methyl-propanenitrile] | > 500 nM | 100 to 500 nM | 0.01 to 10 nM

From patent publication US12391679B2, “Benzamide-substituted bicyclic imidazo- and pyrazolo-fused -pyridine, -pyrimide, and -pyridazine compounds for treatment of inflammatory diseases” (ONCO3R Therapeutics BV, priority 2019, dated 2025)
